Here are results for eight compounds from patent US20140288074A1, “FUNGICIDAL PYRAZOLES” (E I DU PONT DE NEMOURS AND COMPANY, priority 2013, published 2014).

The structures appear in SMILES notation.

One data set relates to Botrytis cinerea. Briefly: Test A: preventive spray on tomato seedlings, tomato Botrytis, visual disease rating. It is filed as in vivo. The settings on record: 200 ppm test suspension, Botrytis cinerea inoculated the day after spraying. As to the method:
General protocol for preparing test suspensions for Tests A-G: the test compounds were first dissolved in acetone in an amount equal to 3% of the final volume and then suspended at the desired concentration (in ppm) in acetone and purified water (50/50 mix by volume) containing 250 ppm of the surfactant Trem® 014 (polyhydric alcohol esters). The resulting test suspensions were then used in Tests A-G. Each test was conducted in triplicate, and the results were averaged. Spraying a 200 ppm test suspension to the point of run-off on the test plants was the equivalent of a rate of 800 g/ha. Unless otherwise indicated, the rating values indicate a 200 ppm test suspension was used. (An asterisk “*” next to the rating value indicates a 40 ppm test suspension was used.) The test suspension was sprayed to the point of run-off on tomato seedlings. The following day the seedlings were inoculated with a spore suspension of Botrytis cinerea (the causal agent of tomato Botrytis) and incubated in saturated atmosphere at 20° C. for 48 h, and then moved to a growth chamber at 24° C. for 3 additional days, after which time visual disease ratings were made. Results for Tests A-G are given in Table A. In the Table, a rating of 100 indicates 100% disease control and a rating of 0 indicates no disease control (relative to the controls). A hyphen (-) indicates no test results.

A further data set has as its system Alternaria solani. The experiment in a line: Test B: preventive spray on tomato seedlings, tomato early blight, visual disease rating. It is filed as in vivo. As to conditions: 200 ppm test suspension, Alternaria solani inoculated the day after spraying. As to the method: General protocol for preparing test suspensions for Tests A-G: the test compounds were first dissolved in acetone in an amount equal to 3% of the final volume and then suspended at the desired concentration (in ppm) in acetone and purified water (50/50 mix by volume) containing 250 ppm of the surfactant Trem® 014 (polyhydric alcohol esters). The resulting test suspensions were then used in Tests A-G. Each test was conducted in triplicate, and the results were averaged. Spraying a 200 ppm test suspension to the point of run-off on the test plants was the equivalent of a rate of 800 g/ha. Unless otherwise indicated, the rating values indicate a 200 ppm test suspension was used. (An asterisk “*” next to the rating value indicates a 40 ppm test suspension was used.) The test suspension was sprayed to the point of run-off on tomato seedlings. The following day the seedlings were inoculated with a spore suspension of Alternaria solani (the causal agent of tomato early blight) and incubated in a saturated atmosphere at 27° C. for 48 h, and then moved to a growth chamber at 20° C. for 5 days, after which time visual disease ratings were made. Results for Tests A-G are given in Table A. In the Table, a rating of 100 indicates 100% disease control and a rating of 0 indicates no disease control (relative to the controls). A hyphen (-) indicates no test results.

The test system of another data set is Septoria nodorum. The experiment in a line: Test C: preventive spray on wheat seedlings, Septoria glume blotch, visual disease rating. It is filed as in vivo. As to conditions: 200 ppm test suspension, Septoria nodorum inoculated the day after spraying; for pest or weed control at 200 ppm: Parastagonospora nodorum, 264 h. As to the method:
General protocol for preparing test suspensions for Tests A-G: the test compounds were first dissolved in acetone in an amount equal to 3% of the final volume and then suspended at the desired concentration (in ppm) in acetone and purified water (50/50 mix by volume) containing 250 ppm of the surfactant Trem® 014 (polyhydric alcohol esters). The resulting test suspensions were then used in Tests A-G. Each test was conducted in triplicate, and the results were averaged. Spraying a 200 ppm test suspension to the point of run-off on the test plants was the equivalent of a rate of 800 g/ha. Unless otherwise indicated, the rating values indicate a 200 ppm test suspension was used. (An asterisk “*” next to the rating value indicates a 40 ppm test suspension was used.) The test suspension was sprayed to the point of run-off on wheat seedlings. The following day the seedlings were inoculated with a spore suspension of Septoria nodorum (the causal agent of Septoria glume blotch) and incubated in a saturated atmosphere at 24° C. for 48 h, and then moved to a growth chamber at 20° C. for 9 days, after which time visual disease ratings were made. Results for Tests A-G are given in Table A. In the Table, a rating of 100 indicates 100% disease control and a rating of 0 indicates no disease control (relative to the controls). A hyphen (-) indicates no test results.

Another data set relates to Septoria tritici. Briefly: Test D: preventive spray on wheat seedlings, wheat leaf blotch, visual disease rating. It is filed as in vivo. As to conditions: 200 ppm test suspension, Septoria tritici inoculated the day after spraying; for pest or weed control at 200 ppm: Zymoseptoria tritici, 504 h. As to the method: General protocol for preparing test suspensions for Tests A-G: the test compounds were first dissolved in acetone in an amount equal to 3% of the final volume and then suspended at the desired concentration (in ppm) in acetone and purified water (50/50 mix by volume) containing 250 ppm of the surfactant Trem® 014 (polyhydric alcohol esters). The resulting test suspensions were then used in Tests A-G. Each test was conducted in triplicate, and the results were averaged. Spraying a 200 ppm test suspension to the point of run-off on the test plants was the equivalent of a rate of 800 g/ha. Unless otherwise indicated, the rating values indicate a 200 ppm test suspension was used. (An asterisk “*” next to the rating value indicates a 40 ppm test suspension was used.) The test suspension was sprayed to the point of run-off on wheat seedlings. The following day the seedlings were inoculated with a spore suspension of Septoria tritici (the causal agent of wheat leaf blotch) and incubated in saturated atmosphere at 24° C. for 48 h. and then the seedlings were moved to a growth chamber at 20° C. for 19 additional days, after which time visual disease ratings were made. Results for Tests A-G are given in Table A. In the Table, a rating of 100 indicates 100% disease control and a rating of 0 indicates no disease control (relative to the controls). A hyphen (-) indicates no test results.

The test system of data set [1] is Puccinia recondita f. sp. tritici. Briefly: Test F: preventive spray on wheat seedlings, wheat leaf rust, visual disease rating. As to conditions: 200 ppm test suspension, Puccinia recondita f. sp. tritici inoculated the day after spraying; for pest or weed control at 200 ppm: 168 h. The format is in vivo. As to the method: General protocol for preparing test suspensions for Tests A-G: the test compounds were first dissolved in acetone in an amount equal to 3% of the final volume and then suspended at the desired concentration (in ppm) in acetone and purified water (50/50 mix by volume) containing 250 ppm of the surfactant Trem® 014 (polyhydric alcohol esters). The resulting test suspensions were then used in Tests A-G. Each test was conducted in triplicate, and the results were averaged. Spraying a 200 ppm test suspension to the point of run-off on the test plants was the equivalent of a rate of 800 g/ha. Unless otherwise indicated, the rating values indicate a 200 ppm test suspension was used. (An asterisk “*” next to the rating value indicates a 40 ppm test suspension was used.) The test suspension was sprayed to the point of run-off on wheat seedlings. The following day the seedlings were inoculated with a spore suspension of Puccinia recondita f. sp. tritici (the causal agent of wheat leaf rust) and incubated in a saturated atmosphere at 20° C. for 24 h, and then moved to a growth chamber at 20° C. for 6 days, after which time visual disease ratings were made. Results for Tests A-G are given in Table A. In the Table, a rating of 100 indicates 100% disease control and a rating of 0 indicates no disease control (relative to the controls). A hyphen (-) indicates no test results.

The test system of data set [2] is Blumeria graminis f. sp. tritici. Briefly: Test G: preventive spray on wheat seedlings, wheat powdery mildew, visual disease rating.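 As to all read-outs here: rated 8 days after spore dust inoculation at 20 °C.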 The format is in vivo. The settings on record: 200 ppm test suspension, Blumeria graminis f. sp. tritici inoculated the day after spraying; for pest or weed control at 200 ppm: 192 h. As to the method: General protocol for preparing test suspensions for Tests A-G: the test compounds were first dissolved in acetone in an amount equal to 3% of the final volume and then suspended at the desired concentration (in ppm) in acetone and purified water (50/50 mix by volume) containing 250 ppm of the surfactant Trem® 014 (polyhydric alcohol esters). The resulting test suspensions were then used in Tests A-G. Each test was conducted in triplicate, and the results were averaged. Spraying a 200 ppm test suspension to the point of run-off on the test plants was the equivalent of a rate of 800 g/ha. Unless otherwise indicated, the rating values indicate a 200 ppm test suspension was used. (An asterisk “*” next to the rating value indicates a 40 ppm test suspension was used.) The test suspension was sprayed to the point of run-off on wheat seedlings. The following day the seedlings were inoculated with a spore dust of Blumeria graminis f. sp. tritici (also known as Erysiphe graminis f. sp. tritici, the causal agent of wheat powdery mildew) and incubated in a growth chamber at 20° C. for 8 days, after which time visual disease ratings were made. Results for Tests A-G are given in Table A. In the Table, a rating of 100 indicates 100% disease control and a rating of 0 indicates no disease control (relative to the controls). A hyphen (-) indicates no test results.

Data set [3] relates to Puccinia recondita f. sp. tritici. The experiment in a line: Test E: spray after inoculation of wheat seedlings, wheat leaf rust, visual disease rating. The format is in vivo. The settings on record: 200 ppm test suspension, sprayed after inoculation with Puccinia recondita f. sp. tritici. As to the method: General protocol for preparing test suspensions for Tests A-G: the test compounds were first dissolved in acetone in an amount equal to 3% of the final volume and then suspended at the desired concentration (in ppm) in acetone and purified water (50/50 mix by volume) containing 250 ppm of the surfactant Trem® 014 (polyhydric alcohol esters). The resulting test suspensions were then used in Tests A-G. Each test was conducted in triplicate, and the results were averaged. Spraying a 200 ppm test suspension to the point of run-off on the test plants was the equivalent of a rate of 800 g/ha. Unless otherwise indicated, the rating values indicate a 200 ppm test suspension was used. (An asterisk “*” next to the rating value indicates a 40 ppm test suspension was used.) Wheat seedlings were inoculated with a spore suspension of Puccinia recondita f. sp. tritici (the causal agent of wheat leaf rust) and incubated in a saturated atmosphere at 20° C. for 24 h, and then moved to a growth chamber at 20° C. for 2 days. At the end of this time the, the test suspension was sprayed to the point of run-off on the wheat seedlings, and then the seedlings were moved back to the growth chamber at 20° C. for 4 days. Upon removal, visual disease ratings were made. Results for Tests A-G are given in Table A. In the Table, a rating of 100 indicates 100% disease control and a rating of 0 indicates no disease control (relative to the controls). A hyphen (-) indicates no test results.

As to `Cc1nn(C)c(NC(C)C)c1-c1ccc(F)cc1F` [Compound 1], in the data set on Botrytis cinerea, the “Test A rating (disease control)” value amounted to 65%. Moreover, the “Test B rating (disease control)” value in the data set with Alternaria solani is 0%. In the data set on Septoria nodorum, the “Test C rating (disease control)” value is listed as 0%. Also, the “Test D rating (disease control)” value in the data set on Septoria tritici was determined as 0%. Further, the “Test F rating (disease control)” value in data set [1] is on record as 0%. The “Test G rating (disease control)” value in data set [2] was 0%.
Take `Cc1nn(C)c(C(O)C2CCCCC2)c1-c1c(F)cccc1Cl` (stereo not drawn) [Compound 16, 4-(2-chloro-6-fluorophenyl)-α-cyclohexyl-1,3-dimethyl-1H-pyrazole-5-methanol]: in the data set on Alternaria solani, the “Test B rating (disease control)” value turned out to be 89%. For the same compound, the pest or weed control at 200 ppm in the data set on Septoria nodorum is 0%; in the data set on Septoria tritici, 100%; in data set [1] it was 79%; in data set [2], 100%. Moreover, the “Test E rating (disease control)” value in data set [3] was 0%.
With `CC=C(C)C(O)c1c(-c2c(F)cccc2Cl)c(C)nn1C` (stereo not drawn) [Compound 17], the “Test B rating (disease control)” value with Alternaria solani is 58%. Also, the “Test C rating (disease control)” value in the data set with Septoria nodorum is 0%. Besides, the “Test D rating (disease control)” value with Septoria tritici was 72%. The “Test E rating (disease control)” value in data set [3] is on record as 9%. Also, the “Test F rating (disease control)” value in data set [1] is 74%. Moreover, the “Test G rating (disease control)” value in data set [2] was 78%.
Regarding `CCC=C(C)C(O)c1c(-c2c(F)cccc2F)c(C)nn1C` (stereo not drawn) [Compound 18], the “Test B rating (disease control)” value in the data set on Alternaria solani was determined as 96%. Moreover, the “Test C rating (disease control)” value with Septoria nodorum was found to be 0%. Moreover, the “Test D rating (disease control)” value in the data set on Septoria tritici is reported as 24%. For the same compound, the “Test E rating (disease control)” value in data set [3] was 9%. Further, the “Test F rating (disease control)” value in data set [1] is 18%. In addition, the “Test G rating (disease control)” value in data set [2] was 60%.
Compound `Cc1nn(C)c(N2CCC(C)CC2)c1-c1ccc(F)cc1Cl` [Compound 42, 1-[4-(2-chloro-4-fluorophenyl)-1,3-dimethyl-1H-pyrazol-5-yl]-4-methylpiperidine] came in with a melting point of 98 to 100 °C. Also, the pest or weed control at 200 ppm in the data set on Botrytis cinerea (120 h) stood at 0%. For the same compound, in the data set with Septoria nodorum, the pest or weed control at 200 ppm amounted to 0%. Besides, in the data set on Septoria tritici, the pest or weed control at 200 ppm is 99%. For the same compound, the pest or weed control at 200 ppm in data set [1] worked out at 72%. Besides, in data set [2], the pest or weed control at 200 ppm amounted to 0%.
Consider `Cc1nn(C)c(NC(C)C)c1-c1c(F)cc(F)cc1F` [Compound 49], for which the “Test A rating (disease control)” value with Botrytis cinerea was 40%. Further, in the data set with Septoria nodorum, the “Test C rating (disease control)” value was determined as 98%. For the same compound, the “Test D rating (disease control)” value with Septoria tritici turned out to be 0%. Further, the “Test F rating (disease control)” value in data set [1] is 98%. Also, in data set [2], the “Test G rating (disease control)” value came out at 0%.
With `CCN(CC)c1c(-c2c(F)cc(F)cc2F)c(C)nn1C` [Compound 50], the “Test A rating (disease control)” value in the data set on Botrytis cinerea was found to be 38%. In addition, the “Test C rating (disease control)” value in the data set on Septoria nodorum is listed as 0%. Moreover, the “Test D rating (disease control)” value in the data set with Septoria tritici is listed as 0%. The “Test F rating (disease control)” value in data set [1] stood at 74%. Besides, the “Test G rating (disease control)” value in data set [2] is given as 0%.
Consider `COCCNc1c(-c2c(F)cc(F)cc2F)c(C)nn1C` [Compound 54], for which the “Test A rating (disease control)” value in the data set on Botrytis cinerea amounted to 0%. Moreover, in the data set with Septoria nodorum, the “Test C rating (disease control)” value is recorded as 97%. The “Test D rating (disease control)” value with Septoria tritici amounted to 92%. In addition, in data set [1], the “Test F rating (disease control)” value was determined as 95%. The “Test G rating (disease control)” value in data set [2] was 0%.
